Reference: patent US20040142981A1, “Antibacterial benzoic acid derivatives” (priority 2002, published 2004)
Converted amounts (≈) assume the structure as drawn.

System: SAUR 9218
Assay: MIC by standard agar dilution method
Assay type: cell-based
Details: Mueller Hinton agar, incubated overnight at 35° C., lowest concentration that inhibits visible growth
Method: MIC Test Method The in vitro MICs of test compounds were determined by a standard agar dilution method. A stock drug solution of each analog was prepared in the preferred solvent, usually DMSO:H2O (1:3). Serial 2-fold dilutions of each sample are made using 1.0 ml aliquots of sterile distilled water. To each 1.0 ml aliquot of drug was added 9 ml of molten Mueller Hinton agar medium. The drug-supplemented agar was mixed, poured into 15×100 mm petri dishes, and allowed to solidify and dry prior to inoculation. Vials of each of the test organisms are maintained frozen in the vapor phase of a liquid nitrogen freezer. Test cultures are grown overnight at 35° C. on the medium appropriate for the organism. Colonies are harvested with a sterile swab, and cell suspensions are prepared in Trypticase Soy broth (TSB) to equal the turbidity of a 0.5 McFarland standard. A 1:20 dilution of each suspension was made in TSB. The plates containing the drug supplemented agar are inoculated with a 0.001 ml drop of the cell suspension using a Steers replicator, yielding approximately 10^4 to 10^5 cells per spot. The plates are incubated overnight at 35° C. Following incubation the Minimum Inhibitory Concentration (MIC μg/ml), the lowest concentration of drug that inhibits visible growth of the organism, was read and recorded.

SMILES | MIC
CN(c1ccc(Cl)cc1)S(=O)(=O)c1ccc(C(=O)Nc2ccc(Br)cc2NS(=O)(=O)C(F)(F)F)cc1 | 32 µg/mL (≈ 51 µM)
CN(c1ccc(Cl)cc1)S(=O)(=O)c1ccc(C(=O)Nc2ccc(Br)cc2-c2nnn[nH]2)cc1 [Example 5, N-[4-Bromo-2-(1H-tetraazol-5-yl)phenyl]-4-{[(4-chlorophenyl)(methyl)amino]sulfonyl}benzamide] | 16 µg/mL (≈ 29.2 µM)
CN(c1ccc(Cl)cc1)S(=O)(=O)c1ccc(C(=O)Nc2ccc(Br)cc2-c2noc(=O)[nH]2)cc1 [Example 6, N-[4-Bromo-2-(5-oxo-4,5-dihydro-1,2,4-oxadiazol-3-yl)phenyl]-4-{[(4-chlorophenyl)(methyl)amino]sulfonyl}benzamide] | 16 µg/mL (≈ 28.4 µM)
O=C(Nc1ccc(Br)cc1-c1noc(=O)[nH]1)c1ccc(S(=O)(=O)N2CCc3ccccc32)cc1 [Example 7, N-[4-Bromo-2-(5-oxo-4,5-dihydro-1,2,4-oxadiazol-3-yl)phenyl]-4-(2,3-dihydro-1H-indol-1-ylsulfonyl)benzamide] | 16 µg/mL (≈ 29.6 µM)
CN(c1ccc(Cl)cc1)S(=O)(=O)c1cccc(C(=O)Nc2ccc(Br)cc2-c2noc(=O)[nH]2)c1 [Example 9, N-[4-Bromo-2-(5-oxo-4,5-dihydro-1,2,4-oxadiazol-3-yl)phenyl]-3-{[(4-chlorophenyl)(methyl)amino]sulfonyl}benzamide] | 16 µg/mL (≈ 28.4 µM)
O=C(Nc1ccc(Br)cc1-c1noc(=O)[nH]1)c1cccc(OCc2ccccc2)c1 [Example 10, 3-(Benzyloxy)-N-[4-bromo-2-(5-oxo-4,5-dihydro-1,2,4-oxadiazol-3-yl)phenyl]benzamide] | 8 µg/mL (≈ 17.2 µM)
O=C(Nc1ccc(Br)cc1C1=Nc2ccccc2S(=O)(=O)N1)c1cccc(S(=O)(=O)N2CCOCC2)c1 [Example 11, N-[4-Bromo-2-(1,1-dioxido-2H-1,2,4-benzothiadiazin-3-yl)phenyl]-3-(morpholin-4-ylsulfonyl)benzamide] | 16 µg/mL (≈ 26.4 µM)

More lines, in order of falling MIC, values ahead:

MIC | SMILES
8 µg/mL (≈ 16.6 µM) | O=C(Nc1ccc(Br)cc1-c1noc(=O)[nH]1)c1cccc(SCc2ccccc2)c1 [Example 2, 3-(Benzylthio)-N-[4-bromo-2-(5-oxo-4,5-dihydro-1,2,4-oxadiazol-3-yl)phenyl]benzamide]
8 µg/mL (≈ 11.8 µM) | Cc1ccc(S(=O)(=O)NC(=O)c2cc(Br)ccc2NC(=O)c2cccc(S(=O)(=O)N(C)c3ccc(Cl)cc3)c2)cc1 [Example 4, N-[4-Bromo-2-({[(4-methylphenyl)sulfonyl]amino}carbonyl)phenyl]-3-{[(4-chlorophenyl)(methyl)amino]sulfonyl}benzamide]
4 µg/mL (≈ 6.95 µM) | O=C(Nc1ccc(Br)cc1-c1noc(=O)[nH]1)c1cccc(S(=O)(=O)N2CCc3cc(Cl)ccc32)c1 [Example 1, N-[4-Bromo-2-(5-oxo-4,5-dihydro-1,2,4-oxadiazol-3-yl)phenyl]-3-[(5-chloro-2,3-dihydro-1H-indol-1-yl)sulfonyl]benzamide]
4 µg/mL (≈ 6.9 µM) | CN(c1ccc(Cl)cc1)S(=O)(=O)c1ccc(C(=O)Nc2ccc(Br)cc2-c2n[nH]c(=S)o2)cc1 [Example 8, N-[4-Bromo-2-(5-thioxo-4,5-dihydro-1,3,4-oxadiazol-2-yl)phenyl]-4-{[(4-chlorophenyl)(methyl)amino]sulfonyl}benzamide]
4 µg/mL (≈ 6.29 µM) | O=C(Nc1ccc(Br)cc1-c1nc2ccccc2c(=O)[nH]1)c1cccc(S(=O)(=O)N2CCc3cc(Cl)ccc32)c1 [Example 12, N-[4-Bromo-2-(4-oxo-3,4-dihydroquinazolin-2-yl)phenyl]-3-[(5-chloro-2,3-dihydro-1H-indol-1-yl)sulfonyl]benzamide]
4 µg/mL (≈ 7.02 µM) | O=C(Nc1ccc(Br)cc1-c1nc2ccccc2c(=O)[nH]1)c1cccc(S(=O)(=O)N2CCOCC2)c1 [Example 13, N-[4-Bromo-2-(4-oxo-3,4-dihydroquinazolin-2-yl)phenyl]-3-(morpholin-4-ylsulfonyl)benzamide]
2 µg/mL (≈ 3.33 µM) | CN(c1ccc(Cl)cc1)S(=O)(=O)c1cccc(C(=O)Nc2ccc(Br)cc2C(=O)NS(C)(=O)=O)c1 [Example 3, N-(4-Bromo-2-{[(methylsulfonyl)amino]carbonyl}phenyl)-3-{[(4-chlorophenyl)(methyl)amino]sulfonyl}benzamide]
